Entries after “also recorded” stand apart in the source; their conditions may differ.
Experiments:
HEK293T cells = assay: Epifluorescent imaging of DPP-5 (and DPP-1, DPP-4) in HEK293T cells; assay type: cell-based, human
Procedure: 250,000 HEK293T cells/well, 120,000 HeLa cells/well, or 100,000 HepG2 cells/well were plated in 700 μL DMEM glutamax (10% FBS+1% P/S) into 4-well chambered imaging dish (D35C4-20-1.5-N, Cellvis, Mountain View, Calif., United States of America), which were precoated with 5 μg Poly-D-lysine (30-70 KDa, Alfa Aesar, Haverhill, Mass., United States of America) for 2 h. After 20-24 h, the media was replaced by 1 μM Hoechst 33342 and DMSO/5 μM PalmB in 400 μL DMEM glutamax. After 30 min of incubation at 37° C., the cells were washed with 400 μL of Live Cell Imaging Solution and replaced by 1 μM DPP-5 with DMSO or 5 μM of PalmB in Live Cell Imaging Solution. […] For data analysis, the average fluorescence intensity per image in each experimental condition was obtained by selecting ROI in Brightfield and applying that to the corresponding DPP-5 image, average background fluorescence intensity was subtracted and data was normalized to the average fluorescence intensity of the DMSO control. […]

MCF-7 cells = assay: Flow cytometry of DPP-3 in MCF-7 cells; assay type: cell-based, human; details: 1 μM inhibitor, 5 μM DPP-3, 5 min
Procedure: Cells were plated on a 10 cm dish with 10 mL of DMEM/High Glucose (10% FBS, 1% P/S, L-Glutamine, Sodium pyruvate) 36-48 hours prior to the day of experiment and maintained at 37° C., 5% CO2 so as to obtain 80-90% confluency. Cells were washed with DPBS and trypsinized with 1 mL 0.05% Trypsin. 5 mL of DMEM/High Glucose (10% FBS, L-Glutamine, Sodium pyruvate) was added and cells were spun down at 1200 rpm for 3 min. Media was discarded and cells were resuspended in 5 mL of Live Cell Imaging Solution and again spun down at 1200 rpm for 3 min. The cells pellets obtained were resuspended in 3-5 mL of Live Cell Imaging Solution and divided into 500 μL aliquots. The aliquots were treated with either 0.2% DMSO carrier or 1 μM of PalmB/ML348 or 1 μM/5 μM of ML349 inhibitor. After 30 min of incubation at room temperature, 1 μL of 2.5 mM DPP-3 in DMSO was added to each aliquot for a final concentration of 5 μM, and the solutions were mixed. After 5 min incubation at room temperature, fluorescence signal in FITC channel was measured for 10000 cells (5000 for HeLa experiments) on a LSR-Fortessa 4-15 HTS (BD digital instrument, 488 nm laser with 530/30 nm filter for FITC; BD, Franklin Lakes, N.J., United States of America). For analyzing DPP2 in HEK293T cells, the aliquots were treated with either 0.2% DMSO carrier or 2 μM of PalmB, 5 or 20 μM of ML348/ML349 and then analyzed by the protocol as mentioned above. Data was analyzed by FlowJo software version 10.0.8. For comparison of A431 starved versus non-starved, parallel 10 cm dishes of A431 cells were plated in 10 mL of DMEM (high glucose, 10% FBS, 1% P/S), and grown for 36 h. The growth media was removed, and replaced by 10 mL of either DMEM (High glucose) with 10% FBS to maintain “growth” conditions, or DMEM (High glucose) without FBS respectively for “starvation” conditions, and incubated for 14 h. After trypsinization, both plates were treated with 5 mL of DMEM (high glucose) for spinning the cells down, and further processing and analysis were performed as described above by flow cytometry.

Row | Compound | probe fluorescent signal in cells (HEK293T cells; 1 μM probe for 20 minutes) | effect of inhibitor on depalmitoylation signal measured by DPP-3 (MCF-7 cells) | fluorescent signal of DPP-5 abolished (HEK293T cells; 5 μM PalmB pretreatment, 1 μM DPP-5)
1 | CCCCCCCCCCCCCCCC(=O)SC[C@@H](C(=O)NC)N(C)C(=O)Oc1ccc2c(c1)Oc1cc(N3CCN(C(=O)CCC(=O)O)CC3)ccc1C21OC(=O)c2ccccc21 (stereo partly shown) [DPP-5] | bright, intracellular fluorescent signal; also recorded: robust fluorescent signal | – | –
2 | O=C(CN1CCN(C(=O)c2ccco2)CC1)Nc1cc(C(F)(F)F)ccc1Cl [ML348] | – | knocks down the depalmitoylation signal | –
3 | CCCCCCCCCC[C@@H]1C(=O)O[C@H]1CCc1ccc(OC)c(OC)c1 [PalmB, palmostatin B] | – | knocks down the depalmitoylation signal | about 95%
